Test results as given in ChEMBL document CHEMBL3585267, “Bioactivity of surface tethered Osteogenic Growth Peptide motifs” (2014).
Activity calls are given as the source filed them. No cut-off for these calls is given here. Peptide text beside a SMILES is read from it.

Experiments:
[1] = system: Mesenchymal stem cell; assay: Effect on cell proliferation of rabbit mesenchymal stem cells incubated for 7 days by MTT assay; format: functional; settings: Oryctolagus cuniculus
[2] = system: Mesenchymal stem cell; assay: Induction of osteogenesis of rabbit mesenchymal stem cells by alkaline phosphatase assay; format: functional; settings: Oryctolagus cuniculus
[3] = Reduction in cell proliferation of rabbit mesenchymal stem cells incubated for 7 days by MTT assay; format: functional; settings: Oryctolagus cuniculus
[4] = system: Mesenchymal stem cell; assay: Effect on cell proliferation of rabbit mesenchymal stem cells incubated for 3 days by MTT assay; format: functional; settings: Oryctolagus cuniculus
[5] = Reduction in cell proliferation of rabbit mesenchymal stem cells incubated for 5 days by MTT assay; format: functional; settings: Oryctolagus cuniculus
[6] = Reduction in cell proliferation of rabbit mesenchymal stem cells incubated for 14 days by MTT assay; format: functional; settings: Oryctolagus cuniculus
[7] = system: Mesenchymal stem cell; assay: Effect on cell morphology of rabbit mesenchymal stem cells incubated for 3 days by phalloidin immunofluorescence staining method; format: functional; settings: Oryctolagus cuniculus
[8] = system: Mesenchymal stem cell; assay: Effect on cell morphology of rabbit mesenchymal stem cells incubated for 7 days by H and E staining method; format: functional; settings: Oryctolagus cuniculus
[9] = (§1) Increase in RUNX2 mRNA expression in rabbit mesenchymal stem cells incubated for 7 days by qRT-PCR method relative to untreated control; format: functional, Oryctolagus cuniculus, Mesenchymal stem cell
[10] = (§2) Increase in RUNX2 mRNA expression in rabbit mesenchymal stem cells incubated for 14 days by qRT-PCR method relative to untreated control; format: functional, Oryctolagus cuniculus, Mesenchymal stem cell
[11] = (§3) Increase in BMP2 mRNA expression in rabbit mesenchymal stem cells incubated for 7 days by qRT-PCR method relative to untreated control; format: functional, Oryctolagus cuniculus, Mesenchymal stem cell
[12] = (§4) Increase in BMP2 mRNA expression in rabbit mesenchymal stem cells incubated for 14 days by qRT-PCR method relative to untreated control; format: functional, Oryctolagus cuniculus, Mesenchymal stem cell
[13] = system: Mesenchymal stem cell; assay: Increase in SPARC mRNA expression in rabbit mesenchymal stem cells incubated for 7 days by qRT-PCR method relative to untreated control; format: functional; settings: Oryctolagus cuniculus
[14] = Increase in SPARC mRNA expression in rabbit mesenchymal stem cells incubated for 14 days by qRT-PCR method relative to untreated control; format: functional, Oryctolagus cuniculus, Mesenchymal stem cell
[15] = system: Mesenchymal stem cell; assay: Increase in cell proliferation of rabbit mesenchymal stem cells incubated for 14 days by MTT assay; format: functional; settings: Oryctolagus cuniculus
[16] = system: Mesenchymal stem cell; assay: as §1; format: functional; settings: Oryctolagus cuniculus
[17] = system: Mesenchymal stem cell; assay: as §2; format: functional; settings: Oryctolagus cuniculus
[18] = system: Mesenchymal stem cell; assay: as §3; format: functional; settings: Oryctolagus cuniculus
[19] = system: Mesenchymal stem cell; assay: as §4; format: functional; settings: Oryctolagus cuniculus

SMILES	Activity [1]	Activity [2]	Activity [4]	Activity [7]	Activity [8]	Activity [13]	also measured
N[C@@H](Cc1ccc(O)cc1)C(=O)NCC(=O)N[C@@H](Cc1ccccc1)C(=O)NCC(=O)NCC(=O)N[C@@H](CS)C(=O)O (H-YGFGGC-OH)	inactive	inactive	–	–	–	–	–
CC(C)C[C@H](NC(=O)[C@H](C)N)C(=O)N[C@@H](CCCCN)C(=O)N[C@@H](CCCNC(=N)N)C(=O)N[C@@H](CCC(N)=O)C(=O)NCC(=O)N[C@@H](CCCNC(=N)N)C(=O)N[C@H](C(=O)N[C@@H](CC(C)C)C(=O)N[C@@H](CS)C(=O)O)[C@@H](C)O (H-ALKRQGRTLC-OH)	inactive	inactive	–	–	–	–	–
CC(C)C[C@H](NC(=O)[C@@H](NC(=O)[C@H](CCCNC(=N)N)NC(=O)CNC(=O)[C@H](CCC(N)=O)NC(=O)[C@H](CCCNC(=N)N)NC(=O)[C@H](CCCCN)NC(=O)[C@H](CC(C)C)NC(=O)[C@H](C)NC(=O)[C@@H](N)CS)[C@@H](C)O)C(=O)O (H-CALKRQGRTL-OH)	inactive	inactive	–	–	–	–	–
N[C@@H](CS)C(=O)N[C@@H](Cc1ccc(O)cc1)C(=O)NCC(=O)N[C@@H](Cc1ccccc1)C(=O)NCC(=O)NCC(=O)O (H-CYGFGG-OH)	–	Active	inactive	inactive	inactive	inactive	Activity [3]: Active; Activity [5]: Active; Activity [6]: Active; fold change (FC) [9]: 2.6; fold change (FC) [10]: 1.7; fold change (FC) [11]: 49; fold change (FC) [12]: 60; fold change (FC) [14]: 1.6
N[C@@H](Cc1ccc(O)cc1)C(=O)NCC(=O)N[C@@H](Cc1ccccc1)C(=O)NCC(=O)NCC(=O)O (H-YGFGG-OH)	inactive	inactive	inactive	inactive	inactive	inactive	Activity [15]: Active; Activity [16]: inactive; Activity [17]: inactive; Activity [18]: inactive; Activity [19]: inactive
CC(C)C[C@H](NC(=O)[C@@H](NC(=O)[C@H](CCCNC(=N)N)NC(=O)CNC(=O)[C@H](CCC(N)=O)NC(=O)[C@H](CCCNC(=N)N)NC(=O)[C@H](CCCCN)NC(=O)[C@H](CC(C)C)NC(=O)[C@H](C)N)[C@@H](C)O)C(=O)O (H-ALKRQGRTL-OH)	inactive	inactive	–	–	–	–	–
